Reference: patent US5270186A, “Antitumor antibiotic BMY-42448” (Bristol-Myers Squibb Company, priority 1991, dated 1993)
Converted amounts (≈) assume the structure as drawn.

How the values were obtained:
P388 murine leukemia = assay: In vivo P388 murine leukemia model, ip implant / ip treatment; parameters: species or system murine (CDF1 female mice); conditions: for median survival time: untreated controls 10 days
Protocol: (§1) BMY-42448 was also tested in vivo in the P388 murine leukemia model. When 1×10^6 leukemia cells are implanted ip into CDF1 female mice, the median survival time for untreated controls was 10 days. […] Mice treated with 45 or 15 mg/kg BMY-42448 on the same schedule had median survival time of 13.5 and 13 days, respectively. Each drug treatment group consisted of 4 mice. The positive control reference drug, olivomycin A, was dosed at 0.4 and 0.2 mg/kg once a day for 5 days beginning one day after implant, with median survival times of 16.5 and 16 days, respectively. Both drugs were administered via the intraperitoneal route. Thus, BMY-42448 was active in the ip/ip P388 model with a maximum tolerated dose of 45 mg/kg.

[1] = as above; parameters: species or system murine (CDF1 female mice); conditions: mouse, p388 leukemia model; ip once a day for 5 days; read-out: maximum tolerated dose
Protocol: as §1

HCT-116 colon = assay: In vitro cytotoxicity, crystal violet staining; assay type: cell-based, human; conditions: for IC50: Homo sapiens, 72 h, HCT-116 colon, 3 days with drug
Protocol: (§2) A 150 μl aliquot of culture media containing 3750 cells was plated into each well of a 96 well microtiter plate on day 0 and allowed to attach by incubation for 24 hours at 37° C. in a 5% carbon dioxide atmosphere. Drugs were then added to the top row of the wells and serially diluted down the plate (except for the untreated control column on each plate). The cells and drug were incubated together as above for 3 days. Following incubation, dead unattached cells and media were removed by inverting the plate. Cells that are undamaged by the drug remain attached to the plate. […] The fixing solution was removed by inverting the plate and the plates were air-dried.

B-16 melanoma = assay: In vitro cytotoxicity, crystal violet staining; assay type: cell-based, murine; conditions: for IC50: Mus musculus, B16, 72 h, B-16 melanoma, 3 days with drug
Protocol: as §2

P388 tumor = assay: iv-implanted P388 tumor model; assay type: in vivo, murine (CDF1 female mice)
Protocol: BMY-42448 was tested in an iv-implanted P388 tumor model. In this model 1×10^6 cells are implanted intravenously in CDF1 female mice. […] Mitomycin C given iv once at 3.2 mg/kg on the day after tumor implant extended median survival to 12 days after tumor implant. BMY-42448 was toxic when administered iv at 10 mg/kg every other day for 3 doses beginning one day after tumor implant.

Compound	median survival time (P388 murine leukemia; 15 mg/kg ip once a day for 5 days)	median survival time (P388 murine leukemia; 45 mg/kg ip once a day for 5 days)	outcome (drug toxicity) (P388 murine leukemia; 135 mg/kg ip once a day for 5 days beginning 1 day after tumor implant)	activity in the ip/ip P388 model (P388 murine leukemia; ip implant, ip treatment)	MTD [1]	IC50 (HCT-116 colon)	activity on the HCT-116 colon cancer line compared with reference drug (HCT-116 colon; compared with mitomycin C)	IC50 (B-16 melanoma)	activity on the B-16 melanoma cell line compared with reference drug (B-16 melanoma; compared with cisplatin)	median life span (P388 tumor; 1.25 mg/kg iv every other day for 3 doses, untreated control 8 days)	median life span (P388 tumor; 2.5 mg/kg iv every other day for 3 doses, untreated control 8 days)	median life span (P388 tumor; 5 mg/kg iv every other day for 3 doses, untreated control 8 days)	toxicity (P388 tumor; 10 mg/kg iv every other day for 3 doses beginning one day after tumor implant)	activity in iv-implanted P388 model (P388 tumor; 5, 2.5 or 1.25 mg/kg iv every other day for 3 doses)	median survival (P388 tumor; 3.2 mg/kg iv once on the day after tumor implant, untreated control 8 days)	median survival time (P388 murine leukemia; 0.2 mg/kg ip once a day for 5 days)	median survival time (P388 murine leukemia; 0.4 mg/kg ip once a day for 5 days)
CCC1CC23OC(=O)C(=C2O)C(=O)C2(CC)C(C=CC4C(OC5CC(O)C(NC(=O)c6[nH]c(Cl)cc6Cl)C(C)O5)C(C)CCC42)CC=CCC=CC3(C)C=C1C(=O)O (stereo not shown) [BMY-42448]	13 days	13.5 days	died of drug toxicity	active	45 mg/kg	0.25 µg/mL (≈ 0.297 µM)	equivalent to that of mitomycin C	16 µg/mL (≈ 19 µM)	equal to that of cisplatin	8 days	8 days	8 days	toxic	inactive			
CO[C@@]12[C@H](COC(N)=O)C3=C(C(=O)C(C)=C(N)C3=O)N1C[C@@H]1N[C@@H]12 [Mitomycin C, reference compound]						0.25 µg/mL (≈ 0.748 µM)		0.98 µg/mL (≈ 2.93 µM)							12 days		
olivomycin A [reference compound]																16 days	16.5 days
